Measurements: ChEMBL document CHEMBL1141991, “Functionalized dendrimers as endotoxin sponges” (Bioorg Med Chem Lett, 2005)

Legend:
[1] = Inhibitory concentration against lipopolysaccharide in BC fluorescenced murine macrophages J774A; type: functional, Mus musculus
Mus musculus = species on record: Mus musculus; assay: Effective dose against lipopolysaccharide in BC fluorescenced murine macrophages J774A; type: functional

Sequence | IC50 [1] | ED50 (Mus musculus)
POLYMYXIN B [listing 1 of 2 here] | 210 µM | –
POLYMYXIN B [listing 2 of 2 here] | – | 0.31 µM
